# Laboratory results taken from patent publication US20130096149A1, “HETEROARYL COMPOUNDS AND COMPOSITIONS AS PROTEIN KINASE INHIBITORS” (NOVARTIS AG, priority 2010, published 2013).
# Target: b-Raf(V600E) (Homo sapiens, UniProt P15056, V600E)
# Assay: Raf/Mek Amplified Luminescence Proximity Homogeneous Assay (Alpha Screen)
# Format: biochemical
# Conditions: b-Raf(V600E) approximately 4 pM; biotinylated Mek, kinase dead approximately 10 nM; ATP 10 μM; pre-incubation 60 minutes; reaction 3 hours at room temperature; read-out: mut-bRaf IC50
# Protocol: Raf/Mek Amplified Luminescence Proximity Homogeneous Assay
# Assay buffer: 50 mM Tris, pH 7.5, 15 mM MgCl2, 0.01% Bovine Serum Albumin (BSA), 1 mM dithiothreitol (DTT) Stop buffer: 60 mM ethylenediaminetetraacetic acid (EDTA), 0.01% Tween® 20 Bead buffer: 50 mM Tris, pH 7.5, 0.01% Tween® 20 […]
# biotinylated Mek, kinase dead
# Alpha Screen detection kit (available from PerkinElmer™, #6760617R)
# Anti phospho-MEK1/2 (available from Cell Signaling Technology, Inc. #9121) 384 well assay plates (White Greiner® plates, #781207) […]
# b-Raf(V600E) approximately 4 pM […]
# biotinylated Mek, Kinase dead approximately 10 nM
# Pre-incubation time with compounds 60 minutes at room temperature
# Reaction time 1 or 3 hours at room temperature
# Raf and biotinylated Mek, kinase dead, were combined at 2× final concentrations in assay buffer (50 mM Tris, pH 7.5, 15 mM MgCl2, 0.01% BSA and 1 mM DTT) and dispensed 10 μl per well in assay plates (Greiner white 384 well assay plates #781207) containing 0.5 μl of 40× of a raf kinase inhibitor test compound diluted in 100% DMSO. The plate was incubated for 60 minutes at room temperature.
# The Raf kinase activity reaction was started by the addition of 10 μL per well of 2×ATP diluted in assay buffer. After 3 hours (bRaf(V600E)) or 1 hour (c-Raf), the reactions were stopped with the addition of 10 μL of stop reagent (60 mM EDTA). Phosphorylated product was measured using a rabbit anti-p-MEK (Cell Signaling, #9121) antibody and the Alpha Screen IgG (ProteinA) detection Kit (PerkinElmer #6760617R), by the addition of 30 μL to the well of a mixture of the antibody (1:2000 dilution) and detection beads (1:2000 dilution of both beads) in bead buffer (50 mM Tris, pH 7.5, 0.01% Tween20). The additions were carried out under dark conditions to protect the detection beads from light. A lid was placed on top of the plate and incubated for 1 hour at room temperature, then the luminescence was read on a PerkinElmer Envision instrument. The concentration of each compound for 50% inhibition (IC50) was calculated by non-linear regression using XL Fit data analysis software.
# Chain of b-Raf(V600E) (P15056 whole entry V600E): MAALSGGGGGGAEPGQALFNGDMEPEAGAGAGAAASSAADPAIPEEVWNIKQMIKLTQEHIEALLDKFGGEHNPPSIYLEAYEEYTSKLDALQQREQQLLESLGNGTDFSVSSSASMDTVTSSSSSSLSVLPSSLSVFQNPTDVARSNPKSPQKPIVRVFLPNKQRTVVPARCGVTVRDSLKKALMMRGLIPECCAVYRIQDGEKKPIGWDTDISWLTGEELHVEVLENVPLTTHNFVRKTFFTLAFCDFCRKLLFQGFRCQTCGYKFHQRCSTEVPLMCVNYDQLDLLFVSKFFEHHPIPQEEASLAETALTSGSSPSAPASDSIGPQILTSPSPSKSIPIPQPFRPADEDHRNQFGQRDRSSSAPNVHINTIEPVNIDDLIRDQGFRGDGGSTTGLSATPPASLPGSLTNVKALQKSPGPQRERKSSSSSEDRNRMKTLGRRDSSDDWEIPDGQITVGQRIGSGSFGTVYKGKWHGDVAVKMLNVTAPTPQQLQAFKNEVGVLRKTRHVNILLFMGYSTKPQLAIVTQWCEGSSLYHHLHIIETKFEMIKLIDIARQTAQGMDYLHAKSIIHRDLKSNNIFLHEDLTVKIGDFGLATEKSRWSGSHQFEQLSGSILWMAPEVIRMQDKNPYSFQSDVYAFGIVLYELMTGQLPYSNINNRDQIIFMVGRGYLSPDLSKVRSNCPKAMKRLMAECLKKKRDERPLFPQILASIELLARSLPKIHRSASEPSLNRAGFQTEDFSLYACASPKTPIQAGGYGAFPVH
row,Structure (SMILES),IC50 [nM]
1,COC(=O)N[C@@H](C)CNc1nccc(-c2sc(C3CC3)nc2-c2cc(Cl)cc(NS(C)(=O)=O)c2Cl)n1 [Example 55],0.28
2,CCCS(=O)(=O)Nc1cc(Cl)cc(-c2nc(C3CC3)oc2-c2ccnc(N)n2)c1Cl [Example 56],0.022
3,CCCS(=O)(=O)Nc1cc(Cl)cc(-c2nc(C3CC3)oc2-c2ccnc(NC[C@H](C)NC(=O)OC)n2)c1Cl [Example 57],0.56
4,CS(=O)(=O)Nc1cc(Cl)cc(-c2nc(C3CC3)oc2-c2ccnc(N)n2)c1Cl [Example 58],0.35
5,CNc1nccc(-c2oc(C3CC3)nc2-c2cc(Cl)cc(NS(C)(=O)=O)c2Cl)n1 [Example 59],1.5
6,COC(=O)N[C@@H](C)CNc1nccc(-c2oc(C3CC3)nc2-c2cc(Cl)cc(NS(C)(=O)=O)c2Cl)n1 [Example 60],0.46
7,CNc1nccc(-c2sc(C(C)(C)C)nc2-c2cc(Cl)cc(NS(C)(=O)=O)c2F)n1 [Example 61],0.65
8,CCCS(=O)(=O)Nc1cc(Cl)cc(-c2nc(C3CC3)oc2-c2ccnc(NC)n2)c1F [Example 62],0.28

# Next, values leading:
row,IC50 [nM],Structure (SMILES)
1,0.044,CCCS(=O)(=O)Nc1cc(Cl)cc(-c2nc(C3CC3)oc2-c2ccnc(N)n2)c1F [Example 63]
2,0.28,CCCS(=O)(=O)Nc1cc(Cl)cc(-c2nc(C3CC3)oc2-c2ccnc(NC[C@H](C)NC(=O)OC)n2)c1F [Example 64]
3,0.09,CCCS(=O)(=O)Nc1cc(Cl)cc(-c2nc(C3CC3)sc2-c2ccnc(NC[C@H](C)NC(=O)OC)n2)c1F [Example 65]
4,0.058,CCCS(=O)(=O)Nc1cc(Cl)cc(-c2nc(C3CC3)sc2-c2ccnc(N)n2)c1F [Example 66]
